# Assay results reported in article PMC10982999, “Structure-Guided Design and Optimization of Covalent VHL-Targeted Sulfonyl Fluoride PROTACs” (Journal of Medicinal Chemistry, 2024).
# Columns and labels:
# [1] = biological target: T1, VCB and FAM-conjugated HIF1α-derived peptide interaction (Homo sapiens, UniProt P40337); assay: Competitive fluorescence polarization (FP) assay, VCB / FAM-conjugated HIF1α-derived peptide; type: binding; settings: 2 h incubation between VCB and compound; read-out: apparent IC50 (FP)
# T1 construct: human VHL (UniPort entry P40337, residues 1 -213); 6xHis followed by TEV site (N, cleaved yes); made in house; host or cells: E. coli One Shot BL21(DE3)
# Experimental: We next focused on developing a second generation covalent VHL binder with enhanced potency and occupancy.
# Figure 2 (A) Structure of VHL-SF2. […] (E) Competition pull-down assay from live cells between VHL-SF2-Biotin and VHL-SF2. HEK293T cells were pretreated with DMSO or varying concentrations of VHL-SF2 for 2 h at 37 °C. The cells were lysed and treated with DMSO or VHL-SF2-Biotin (50 μM) for 2 h at room temperature. A pull-down with streptavidin beads was conducted, after which the protein was resolved on SDS/PAGE. VHL and loading control GAPDH levels were visualized by Western blotting.
# Figure S3. (A) Gel-based VHL labelling of VHL-SF1-Biotin, and (B) VHL-SF2-Biotin. VCB protein was pre-treated with DMSO, VHL-SF1-Biotin or VHL-SF2-Biotin for 2 h at room temperature, after which protein was resolved on SDS -PAGE and visualised by Neutravidin […]
# Figure S4. Dose-response of VHL-SF1 following a 2 h pre-incubation in the presence of VCB and FAM-conjugated HIF1α-derived peptide, assessed by fluorescence polarization. Data […]
# Figure S5. (A) VCB was incubated with DMSO for 24 h and subjected to intact-protein LC-MS (VHL: 24784 Da). […]
# Fluorescence polarization assay protocol […]
# well plate and the plate was shaken for 1 min, before reading fluorescence polarization on a Perkin Elmer Envision 2101 plate reader (excitation 486 nm, emission 535 nm). […]
# physchem = settings: buffer
# Experimental: Table S1. Sulfonyl fluoride warhead stability for VHL-SF1 and VHL-SF2 was determined in
# (1 picture or pasted object on this page, not shown here)
smiles,measurement,setting,value
"Cc1cc([C@H](C(=O)N2C[C@H](S(=O)(=O)F)C[C@H]2C(=O)N[C@@H](CC(=O)OC(C)(C)C)c2ccc(-c3scnc3C)cc2)C(C)C)on1 [VHL-SF2, tert-Butyl (S)-3-((2S,4R)-4-(Fluorosulfonyl)-1-((R)-3-methyl-2-(3-methylisoxazol-5-yl)butanoyl)pyrr-olidine-2-carboxamido)-3-(4-(4-methylthiazol-5-yl)phenyl)propanoate]",IC50,[1],35 µM
same,half-life,physchem; pH 4,38 h
same,half-life,physchem; pH 5,14 h
same,half-life,physchem; pH 6,15 h
same,half-life,physchem; pH 7.5,0.4 h
